# Paper PMC7799360, “Reprogramming immunosuppressive myeloid cells facilitates immunotherapy for colorectal cancer” (EMBO Molecular Medicine, 2020)
# Structures can show the parent of a compound that is named as a salt. Where no end group is shown, it is not given here.
# Experiments:
# OPRD1 = target: T1, OPRD1 (Homo sapiens, UniProt P41143); assay: GPCR calcium flux assay; assay type: cell-based; details: read-out: Known agonists EC50
# T1 construct: Pharmaron (Beijing, China), contract laboratory
# T1 sequence (P41143 whole entry, species assumed): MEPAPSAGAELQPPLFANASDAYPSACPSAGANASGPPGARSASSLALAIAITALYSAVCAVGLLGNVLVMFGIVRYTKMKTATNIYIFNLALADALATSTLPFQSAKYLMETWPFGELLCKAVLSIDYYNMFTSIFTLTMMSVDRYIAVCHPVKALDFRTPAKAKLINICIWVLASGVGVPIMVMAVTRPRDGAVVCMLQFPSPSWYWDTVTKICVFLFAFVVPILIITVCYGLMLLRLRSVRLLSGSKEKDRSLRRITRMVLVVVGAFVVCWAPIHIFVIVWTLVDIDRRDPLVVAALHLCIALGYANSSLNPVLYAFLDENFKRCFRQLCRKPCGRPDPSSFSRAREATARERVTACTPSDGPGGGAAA
# CB2 = CB2 (Homo sapiens, UniProt P34972); assay: LANCE Ultra cAMP assay; details: read-out: IC50 (known antagonists, TP-16); CB2
# Sequence of CB2 (P34972 whole entry, species assumed): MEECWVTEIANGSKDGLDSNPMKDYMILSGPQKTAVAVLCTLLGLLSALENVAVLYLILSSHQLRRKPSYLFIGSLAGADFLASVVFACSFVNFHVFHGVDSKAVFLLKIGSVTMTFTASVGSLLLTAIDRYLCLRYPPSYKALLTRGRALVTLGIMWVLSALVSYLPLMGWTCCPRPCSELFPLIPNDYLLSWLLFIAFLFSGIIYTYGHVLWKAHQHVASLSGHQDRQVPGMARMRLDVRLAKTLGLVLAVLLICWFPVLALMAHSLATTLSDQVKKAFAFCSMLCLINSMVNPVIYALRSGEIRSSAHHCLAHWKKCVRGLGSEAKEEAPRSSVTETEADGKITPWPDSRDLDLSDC
# HTR1B = HTR1B (Homo sapiens, UniProt P28222); assay: LANCE Ultra cAMP assay
# Sequence of HTR1B (P28222 whole entry): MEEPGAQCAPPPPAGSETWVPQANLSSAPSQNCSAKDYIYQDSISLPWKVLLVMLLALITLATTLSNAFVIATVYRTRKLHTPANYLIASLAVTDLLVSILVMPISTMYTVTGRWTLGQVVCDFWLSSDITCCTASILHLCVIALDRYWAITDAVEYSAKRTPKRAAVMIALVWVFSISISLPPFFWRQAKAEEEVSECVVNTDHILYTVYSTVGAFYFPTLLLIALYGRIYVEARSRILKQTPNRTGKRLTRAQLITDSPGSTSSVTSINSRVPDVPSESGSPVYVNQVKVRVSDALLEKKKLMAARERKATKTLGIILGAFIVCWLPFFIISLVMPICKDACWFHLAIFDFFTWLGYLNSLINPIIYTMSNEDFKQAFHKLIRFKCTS
# BB1 = target: T2, BB1 (Homo sapiens, UniProt P28336); assay: GPCR calcium flux assay; assay type: cell-based; details: read-out: Known agonists EC50
# T2 construct: Pharmaron (Beijing, China), contract laboratory
# T2 sequence (P28336 whole entry): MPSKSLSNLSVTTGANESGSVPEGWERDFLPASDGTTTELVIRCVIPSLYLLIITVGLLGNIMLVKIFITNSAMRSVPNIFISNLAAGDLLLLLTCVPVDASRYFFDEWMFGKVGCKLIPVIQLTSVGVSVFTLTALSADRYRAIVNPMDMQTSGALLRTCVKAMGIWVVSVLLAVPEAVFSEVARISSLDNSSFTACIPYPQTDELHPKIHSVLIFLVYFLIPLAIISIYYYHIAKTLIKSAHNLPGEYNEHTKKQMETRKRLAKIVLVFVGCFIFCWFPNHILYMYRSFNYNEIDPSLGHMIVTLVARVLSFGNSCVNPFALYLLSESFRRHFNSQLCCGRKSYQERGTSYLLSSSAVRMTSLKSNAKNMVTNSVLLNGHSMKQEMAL
# HTR2B = target: T3, HTR2B (Homo sapiens, UniProt P41595); assay: GPCR calcium flux assay; assay type: cell-based
# T3 construct: Pharmaron (Beijing, China), contract laboratory
# T3 sequence (P41595 whole entry, species assumed): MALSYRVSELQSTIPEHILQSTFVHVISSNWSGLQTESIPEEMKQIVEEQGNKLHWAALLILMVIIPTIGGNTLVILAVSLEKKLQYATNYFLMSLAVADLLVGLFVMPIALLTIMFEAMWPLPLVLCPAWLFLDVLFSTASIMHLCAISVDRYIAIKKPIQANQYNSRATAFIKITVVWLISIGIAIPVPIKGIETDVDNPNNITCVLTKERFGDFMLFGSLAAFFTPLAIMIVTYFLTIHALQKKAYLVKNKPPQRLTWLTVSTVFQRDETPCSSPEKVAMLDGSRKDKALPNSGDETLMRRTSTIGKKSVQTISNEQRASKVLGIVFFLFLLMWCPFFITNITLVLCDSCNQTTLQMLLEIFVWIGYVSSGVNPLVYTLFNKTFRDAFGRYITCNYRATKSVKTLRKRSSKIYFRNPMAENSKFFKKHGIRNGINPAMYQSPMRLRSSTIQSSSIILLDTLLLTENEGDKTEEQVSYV
# AT1 = target: T4, AT1 (Homo sapiens, UniProt P30556); assay: GPCR calcium flux assay; assay type: cell-based; details: read-out: Known agonists EC50
# T4 construct: Pharmaron (Beijing, China), contract laboratory
# T4 sequence (P30556 whole entry): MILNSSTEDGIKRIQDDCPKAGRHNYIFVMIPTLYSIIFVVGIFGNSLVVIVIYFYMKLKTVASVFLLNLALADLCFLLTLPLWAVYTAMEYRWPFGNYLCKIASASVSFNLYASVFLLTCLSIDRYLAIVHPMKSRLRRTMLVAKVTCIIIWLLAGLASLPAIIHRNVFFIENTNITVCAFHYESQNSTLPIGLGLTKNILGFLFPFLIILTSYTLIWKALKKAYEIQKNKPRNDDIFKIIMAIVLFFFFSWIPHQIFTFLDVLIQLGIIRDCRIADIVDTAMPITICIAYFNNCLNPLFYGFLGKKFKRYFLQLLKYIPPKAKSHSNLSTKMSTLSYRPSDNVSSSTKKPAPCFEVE
compound,measurement,setting,value
"CCN(CC)C(=O)c1ccc(C2=CC3(CCNCC3)Oc3cccc(O)c32)cc1 [ADL-5859, reference compound]",EC50,OPRD1,266 nM
"COc1ccc(C(=O)c2c(C)n(CCN3CCOCC3)c3cc(I)ccc23)cc1 [AM630, reference compound]",IC50,CB2,260 nM
CN(C)CCCc1cc(C(=O)Nc2ccc(-c3ccncc3)cc2)ccc1O [GR 55562 dihydrochloride],IC50,"HTR1B; read-out: IC50 (known antagonists, TP-16), HTR1B",35 nM
"CSCC[C@H](NC(=O)[C@H](Cc1ccccc1)NC(=O)[C@H](Cc1c[nH]cn1)NC(=O)CNC(=O)[C@@H](NC(=O)[C@H](C)NC(=O)[C@H](Cc1c[nH]c2ccccc12)NC(=O)[C@H](CC(C)C)NC(=O)[C@H](CC(N)=O)NC(=O)CN)[C@@H](C)O)C(N)=O [Neuromedin B, reference compound]",EC50,BB1,0.2 nM
COc1ccc2[nH]cc(C3=CCNCC3)c2c1 [RU24969],EC50,HTR1B,18 nM
"Cc1nc2sccn2c(=O)c1CCN1CCC(=C(c2ccc(F)cc2)c2ccc(F)cc2)CC1 [Ritanserin, reference compound]",IC50,HTR2B,30.8 nM
DRVYVHPF [Angiotensin II 5-valine],EC50,AT1,0.2 nM
